Measurements: patent US7192942B2, “Process for production of crystals of 11μ-benzaldoxim-estra-4,9-diene derivatives, crystals obtained thereby and pharmaceutical preparations containing them” (Schering AG, priority 2002, dated 2007)

How the values were obtained:
[1] = Active ingredient release (dissolution) of 1 mg capsules and tablets; type: physicochemical; conditions: 0.3% SDS in water, paddle, 100 rpm
Experimental: The release values were compared in a test medium, which comprises 0.3% SDS in water, with paddle stirrIng, 100 rpm.
Active Ingredient Release:
Active ingredient release measured in 1000 mL water with 0.3% sodium dodecyl sulfate, 100 rpm
Content Determination by HPLC with external calibration
Column: LiChrosphere 5μ RP-18 encapped, 150×3 mm
Eluent: acetonitrile/water=45/55

[2] = in comparison to RU 486 (mifeprison); cited from earlier work
[3] = biological target: T1, progesterone receptor (Homo sapiens, UniProt P06401); conditions: in comparison to RU 486; cited from earlier work
T1 sequence (P06401 1-933): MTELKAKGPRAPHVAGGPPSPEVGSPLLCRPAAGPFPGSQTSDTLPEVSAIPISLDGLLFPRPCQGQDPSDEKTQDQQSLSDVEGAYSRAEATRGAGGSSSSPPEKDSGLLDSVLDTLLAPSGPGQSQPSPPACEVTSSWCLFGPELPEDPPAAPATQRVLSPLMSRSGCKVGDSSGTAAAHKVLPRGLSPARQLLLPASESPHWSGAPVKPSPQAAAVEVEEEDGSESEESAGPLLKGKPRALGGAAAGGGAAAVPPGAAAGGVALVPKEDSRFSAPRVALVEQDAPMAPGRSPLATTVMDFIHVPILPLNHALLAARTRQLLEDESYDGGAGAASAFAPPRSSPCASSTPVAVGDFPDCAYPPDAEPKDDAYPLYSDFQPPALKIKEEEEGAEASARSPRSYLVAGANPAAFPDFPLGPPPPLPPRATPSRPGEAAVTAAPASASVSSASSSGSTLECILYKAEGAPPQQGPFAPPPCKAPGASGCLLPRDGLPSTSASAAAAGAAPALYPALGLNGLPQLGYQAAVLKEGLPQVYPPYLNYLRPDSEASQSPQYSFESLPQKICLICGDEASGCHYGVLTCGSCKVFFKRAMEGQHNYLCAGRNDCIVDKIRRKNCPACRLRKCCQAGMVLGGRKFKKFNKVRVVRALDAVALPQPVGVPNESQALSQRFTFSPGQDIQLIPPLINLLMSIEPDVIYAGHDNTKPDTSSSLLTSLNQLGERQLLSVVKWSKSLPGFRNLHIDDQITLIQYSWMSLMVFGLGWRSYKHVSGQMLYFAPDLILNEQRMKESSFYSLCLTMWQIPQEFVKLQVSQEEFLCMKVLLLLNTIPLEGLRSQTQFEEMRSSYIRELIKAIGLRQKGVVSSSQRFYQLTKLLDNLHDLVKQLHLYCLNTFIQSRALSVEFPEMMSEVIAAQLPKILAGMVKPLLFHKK

[4] = biological target: T2, progesterone receptor (PR) (Homo sapiens, UniProt P06401); conditions: cited from earlier work
T2 sequence (P06401 1-933): T1 sequence (P06401 1-933)

[5] = Stability of medicinal preparations under ICH conditions; type: physicochemical; conditions: 40° C., 70% relative humidity; decomposition of carbamate to nitrile
Source text: The carbamate functional group of the above-mentioned 11β-benz-aldoxim-estra-4,9-diene derivative decomposes to form a nitrile by splitting off ethylamine and CO2.

[6] = 1 mg capsule, microcrystalline J956, particle diameter X50 3.4 μm, X100 25 μm
[7] = 1 mg capsule, microcrystalline J956, particle diameter X50 5.2 μm, X100 30 μm
[8] = 1 mg capsule, microcrystalline J956, particle diameter X50 6.6 μm, X100 43 μm
[9] = 1 mg capsule, microcrystalline J956, particle diameter X50 8.7 μm, X100 43 μm
[10] = 1 mg capsule, microcrystalline J956, particle diameter X50 14.1 μm, X100 87 μm
[11] = 1 mg tablet, microcrystalline J956, particle diameter X50 10.6 μm, X100 73 μm
[12] = 1 mg capsule with micronized effective ingredient J956
[13] = 1 mg tablet with micronized effective ingredient J956

For CCNC(=O)ON=Cc1ccc(C2CC3(C)C(CCC3(COC)OC)C3CCC4=CC(=O)CCC4=C23)cc1 (stereo not drawn) [J956, 11β-{4-[(ethylamino-carbonyl)oximinomethyl]phenyl}-17β-methoxy-17α-methoxymethyl-estra-4,9-dien-3-one], the “RELEASE in % 0 min” value [1, 6] was 0%, the “RELEASE in % 10 min” value [1, 6] was 90.7% and the “RELEASE in % 20 min” value [1, 6] was 97.3%. The “RELEASE in % 30 min” value [1, 6] was 98.1%, the “RELEASE in % 45 min” value [1, 6] was 99.9% and the “RELEASE in % 0 min” value [1, 7] was 0%. The “RELEASE in % 10 min” value [1, 7] was 89.8%, the “RELEASE in % 20 min” value [1, 7] was 93.5% and the “RELEASE in % 30 min” value [1, 7] was 93.4%. The “RELEASE in % 45 min” value [1, 7] was 95.6%, the “RELEASE in % 0 min” value [1, 8] was 0% and the “RELEASE in % 10 min” value [1, 8] was 93.2%. For the same compound, the “RELEASE in % 20 min” value [1, 8] was 95.9%, the “RELEASE in % 30 min” value [1, 8] was 96.7% and the “RELEASE in % 45 min” value [1, 8] was 96.8%. The “RELEASE in % 0 min” value [1, 9] was 0%, the “RELEASE in % 10 min” value [1, 9] was 93.5% and the “RELEASE in % 20 min” value [1, 9] was 96.7%. The “RELEASE in % 30 min” value [1, 9] was 98.5%, the “RELEASE in % 45 min” value [1, 9] was 99.7% and the “RELEASE in % 0 min” value [1, 10] was 0%. For the same compound, the “RELEASE in % 10 min” value [1, 10] was 90.2%, the “RELEASE in % 20 min” value [1, 10] was 95.3% and the “RELEASE in % 30 min” value [1, 10] was 96.0%. The “RELEASE in % 45 min” value [1, 10] was 96.3%, the “RELEASE in % 0 min” value [1, 11] was 0% and the “RELEASE in % 10 min” value [1, 11] was 73.7%. The “RELEASE in % 20 min” value [1, 11] was 90.3%, the “RELEASE in % 30 min” value [1, 11] was 91.85% and the “RELEASE in % 45 min” value [1, 11] was 96.6%. For the same compound, the antiglucocorticoid activity [2] was “considerably reduced antiglucocorticoid activity”, the “activity at the progesterone receptor” value [3] was “same activity as RU 486” and the “activity in vivo at the progesterone receptor (PR)” value [4] was “both agonistic and also antagonistic activity”.
With CCNC(=O)O/N=C/c1ccc([C@H]2C[C@@]3(C)[C@@H](CC[C@]3(COC)OC)[C@@H]3CCC4=CC(=O)CCC4=C32)cc1 [Micronizate] the “RELEASE in % 0 min” value [1, 12] was 0%, the “RELEASE in % 10 min” value [1, 12] was 92.1% and the “RELEASE in % 20 min” value [1, 12] was 94.3%. For the same compound, the “RELEASE in % 30 min” value [1, 12] was 94.6%, the “RELEASE in % 45 min” value [1, 12] was 94.9% and the “RELEASE in % 0 min” value [1, 13] was 0%. The “RELEASE in % 10 min” value [1, 13] was 92.1%, the “RELEASE in % 20 min” value [1, 13] was 94.3% and the “RELEASE in % 30 min” value [1, 13] was 94.6%. For the same compound, the “RELEASE in % 45 min” value [1, 13] was 94.9% and the “stability of effective ingredient in medicinal preparations under ICH” value [5] was “not sufficiently stable”.
